IC50, Activity and selectivity ratio data for 26 compounds are collected here from ChEMBL document CHEMBL5532719, “Insight on Some Newly Synthesized Trisubstituted Imidazolinones as VEGFR-2 Inhibitors” (ACS Med Chem Lett, 2024).

The test system of data set [1] is MCF7. Kind of data set: Cytotoxicity against human MCF-7 cells. It is filed as functional, cell-based.
A further data set relates to HepG2. Kind of data set: Cytotoxicity against human HepG2 cells. It counts as functional, cell-based.
Data set [2] relates to MCF7. Kind of data set: Cytotoxicity against human MCF7 cells incubated for 72 hrs by MTT assay. It is filed as functional, cell-based. To be noted: MCF7, 72 h. In general terms: Tetrazolium assays rely on reduction of a dye to a coloured formazan, in cell work by metabolically active cells.
The test system of another data set is A549. Kind of data set: Cytotoxicity against human A549 cells incubated for 72 hrs by MTT assay. It counts as functional, cell-based. Conditions: A549, 72 h.
Data set [3] concerns the target T1, Vascular endothelial growth factor receptor 2 (Homo sapiens, UniProt P35968). Kind of data set: Inhibition of recombinant VEGFR2 (unknown origin) using poly (Glu,Tyr) 4:1 as substrate measured after 45 mins in presence of ATP by microplate reader analysis.
Data set [4] can be described thus: Cytotoxicity against HUVECs incubated for 72 hrs by MTT assay. It counts as toxicity, cell-based. To be noted: human, HUVEC cells.
For a further data set, the system named is HUVEC. Kind of data set: Inhibition of cell migration in human HUVECs assessed as reduction in wound closure percentage (reference value: 97.037%). It is filed as functional. The arrangement: scale not given: the % may be the effect or the level left.
Data set [5] is described as follows: Cytotoxicity against human WI-38 cells incubated for 72 hrs by MTT assay. It is filed as toxicity, cell-based.
Data set [6] in a line: Selectivity index, ratio of IC50 for human WI-38 cells to IC50 for human MCF7 cells. It counts as toxicity. Conditions: WI-38 cells versus MCF7 cells, read-out: Ratio IC50.
A short description of data set [7]: Selectivity index, ratio of IC50 for human WI-38 cells to IC50 for human A549 cells. It counts as toxicity. To be noted: WI-38 cells versus A549 cells, read-out: Ratio IC50.
For data set [8], the system named is MCF7. Kind of data set: Induction of cell cycle arrest in human MCF7 cells assessed as G1 phase arrest at 5.86 uM incubated for 72 hrs by PI staining based flow cytometry analysis (reference value: 11.07%). It counts as functional. A general note: A flow cytometer gives signals particle by particle.
Data set [9] deals with MCF7. Kind of data set: Induction of cell cycle arrest in human MCF7 cells assessed as G2/M phase arrest at 5.86 uM incubated for 72 hrs by PI staining based flow cytometry analysis (reference value: 13.52%). It counts as functional.
Data set [10] concerns MCF7. Kind of data set: Induction of apoptosis in human MCF7 cells assessed as early apoptotic cells at 5.86 uM incubated for 72 hrs by Annexin-V/PI staining based flow cytometry analysis (reference value: 0.06%). It counts as functional.
In data set [11] the test system is MCF7. Kind of data set: Induction of apoptosis in human MCF7 cells assessed as late apoptotic cells at 5.86 uM incubated for 72 hrs by Annexin-V/PI staining based flow cytometry analysis (reference value: 0.68%). It counts as functional.
Data set [12] relates to MCF7. Kind of data set: Induction of apoptosis in human MCF7 cells assessed as necrotic cells at 5.86 uM incubated for 72 hrs by Annexin-V/PI staining based flow cytometry analysis (reference value: 0.02%). It counts as functional.
Data set [13] has as its target T1, Vascular endothelial growth factor receptor 2. Kind of data set: Inhibition of recombinant human VEGFR-2 using poly (Glu,Tyr) 4:1 as substrate in presence of ATP.

≈ marks a conversion by molar mass, not a printed value.

A word on the IC50: it is the concentration needed to halve the response being measured.

T1 sequence (P35968 whole entry): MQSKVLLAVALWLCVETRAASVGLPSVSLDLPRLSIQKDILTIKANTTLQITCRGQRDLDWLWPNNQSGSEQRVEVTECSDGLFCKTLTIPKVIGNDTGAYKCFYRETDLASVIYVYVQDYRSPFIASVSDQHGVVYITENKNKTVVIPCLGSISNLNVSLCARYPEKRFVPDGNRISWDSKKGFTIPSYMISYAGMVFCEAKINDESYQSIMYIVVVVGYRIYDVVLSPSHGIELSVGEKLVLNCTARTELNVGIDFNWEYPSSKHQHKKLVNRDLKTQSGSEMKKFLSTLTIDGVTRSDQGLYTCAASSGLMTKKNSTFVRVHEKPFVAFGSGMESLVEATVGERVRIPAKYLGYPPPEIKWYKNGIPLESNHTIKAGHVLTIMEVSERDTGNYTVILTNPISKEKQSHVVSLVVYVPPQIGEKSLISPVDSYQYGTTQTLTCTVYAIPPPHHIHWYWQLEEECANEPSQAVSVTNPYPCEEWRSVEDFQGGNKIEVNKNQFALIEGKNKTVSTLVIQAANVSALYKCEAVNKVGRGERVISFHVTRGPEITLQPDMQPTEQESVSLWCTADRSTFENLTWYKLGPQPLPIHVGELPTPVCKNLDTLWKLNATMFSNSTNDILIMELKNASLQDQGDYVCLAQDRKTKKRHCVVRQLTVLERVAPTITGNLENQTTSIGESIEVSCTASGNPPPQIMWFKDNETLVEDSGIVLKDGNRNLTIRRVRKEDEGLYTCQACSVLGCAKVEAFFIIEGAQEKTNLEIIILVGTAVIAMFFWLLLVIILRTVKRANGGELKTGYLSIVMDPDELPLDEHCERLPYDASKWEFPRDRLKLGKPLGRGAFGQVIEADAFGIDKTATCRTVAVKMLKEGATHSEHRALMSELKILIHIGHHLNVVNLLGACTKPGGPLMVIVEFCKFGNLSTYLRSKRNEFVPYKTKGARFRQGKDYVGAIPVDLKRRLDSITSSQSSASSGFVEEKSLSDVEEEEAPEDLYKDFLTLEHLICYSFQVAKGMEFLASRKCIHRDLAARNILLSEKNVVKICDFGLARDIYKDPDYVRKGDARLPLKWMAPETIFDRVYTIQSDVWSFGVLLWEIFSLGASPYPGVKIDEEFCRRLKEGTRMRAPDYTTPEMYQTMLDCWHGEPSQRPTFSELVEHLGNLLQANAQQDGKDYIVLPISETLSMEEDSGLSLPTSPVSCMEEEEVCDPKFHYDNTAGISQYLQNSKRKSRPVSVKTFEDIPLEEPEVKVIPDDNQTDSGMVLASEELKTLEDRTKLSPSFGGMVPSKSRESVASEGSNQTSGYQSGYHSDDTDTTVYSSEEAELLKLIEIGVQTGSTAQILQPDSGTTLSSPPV

For `O=C1/C(=C/c2ccc(O)c(Br)c2)N=C(c2ccc(Cl)cc2)N1c1ccccc1`, the IC50 with MCF7 [1] worked out at 18 µg/mL (≈ 39.7 µM); with HepG2 it was 6.1 µg/mL (≈ 13.4 µM).
Regarding `CN(C)c1ccc(/C=C2\N=C(c3ccccc3)N(c3ccc(C(=O)OCC(=O)Nc4ccc(S(N)(=O)=O)cc4)cc3)C2=O)cc1`, the 50% inhibitory concentration (IC50) amounted to 17.7 µM in the data set with MCF7 [2], 14.1 µM in the data set on A549 and 0.02 µM in [3].
As to `Cc1cc(NS(=O)(=O)c2ccc(N3C(=O)/C(=C/c4ccc(N(C)C)cc4)N=C3c3ccc(Cl)cc3)cc2)no1`, the concentration for half-maximal inhibition (IC50) in the data set on MCF7 [2] was 11.5 µM; in the data set on A549, 42.4 µM; in data set [3], 0.11 µM.
With `CN(C)c1ccc(/C=C2\N=C(c3ccccc3)N(c3ccc(C(=O)OCC(=O)Nc4ccc(S(=O)(=O)NC(=N)N)cc4)cc3)C2=O)cc1`, the concentration for half-maximal inhibition (IC50) in the data set with MCF7 [2] is 27.7 µM; in the data set with A549 it was 38.7 µM.
For the compound `CN(C)c1ccc(/C=C2\N=C(c3ccccc3)N(c3ccc(S(=O)(=O)Nc4nccs4)cc3)C2=O)cc1`, the IC50 stood at 39.9 µM with MCF7 [2] and 31.6 µM in the data set with A549.
Regarding `CNC(=O)c1cc(Oc2ccc(NC(=O)Nc3ccc(Cl)c(C(F)(F)F)c3)cc2)ccn1` [SORAFENIB], the IC50 in the data set on MCF7 [2] amounted to 4.88 µM; in the data set with A549, 7.46 µM. Half-maximal inhibition in data set [4] (IC50 at 72 h) required 89.8 µM. The Activity in the data set with HUVEC turned out to be 57.037%.
As to `CN(C)c1ccc(/C=C2\N=C(c3ccc(Cl)cc3)N(c3ccc(S(=O)(=O)Nc4ncccn4)cc3)C2=O)cc1`, the IC50 in the data set with MCF7 [2] was 5.86 µM; with A549, 7.66 µM; in [3] it was 0.07 µM. For the same compound, the IC50 at 72 h in [5] stood at 21.6 µM; in data set [4], 179 µM. In addition, the selectivity ratio was 3.69 in data set [6] and 2.88 in data set [7]. Besides, the Activity amounted to 22.68% in the data set with MCF7 [8]; 35.17% with MCF7 [9]; 22.84% in the data set on MCF7 [10]; 42.21% with MCF7 [11]; 1.64% in the data set with MCF7 [12]; 65.926% in the data set on HUVEC.
For `Cc1cc(NS(=O)(=O)c2ccc(NC(=O)COC(=O)c3ccc(N4C(=O)/C(=C/c5ccc(N(C)C)cc5)N=C4c4ccc(Cl)cc4)cc3)cc2)no1`, the IC50 in the data set on MCF7 [2] amounted to 42.1 µM; with A549 it was 45.5 µM.
As for `Cc1cc(NS(=O)(=O)c2ccc(N3C(=O)/C(=C/c4ccc(N(C)C)cc4)N=C3c3ccccc3)cc2)no1`, the values for the IC50 (with MCF7 [2]; with A549; in [3]) were 9.85 µM, 10.1 µM and 0.14 µM, respectively.
On the same counts, the results for `CN(C)c1ccc(/C=C2\N=C(c3ccc(Cl)cc3)N(c3ccc(S(N)(=O)=O)cc3)C2=O)cc1` are 11.5 µM, 28.8 µM and 0.1 µM.
For the compound `CN(C)c1ccc(/C=C2\N=C(c3ccc(Cl)cc3)N(c3ccc(C(=O)OCC(=O)Nc4ccc(S(=O)(=O)NC(=N)N)cc4)cc3)C2=O)cc1`, the IC50 in the data set on MCF7 [2] was determined as 17.2 µM; in the data set on A549 it was 20.2 µM.
On the same counts, the results for `CN(C)c1ccc(/C=C2\N=C(c3ccccc3)N(c3ccc(C(=O)OCC(=O)Nc4ccc(S(=O)(=O)Nc5ncccn5)cc4)cc3)C2=O)cc1` are 28.8 µM and 27.3 µM.
On the same counts, the results for `Cc1cc(NS(=O)(=O)c2ccc(NC(=O)COC(=O)c3ccc(N4C(=O)/C(=C/c5ccc(N(C)C)cc5)N=C4c4ccccc4)cc3)cc2)no1` are 26.8 µM and 30.6 µM.
On to `CN(C)c1ccc(/C=C2\N=C(c3ccc(Cl)cc3)N(c3ccc(S(=O)(=O)NC(=N)N)cc3)C2=O)cc1`, for which the results for the IC50 (with MCF7 [2]; in the data set with A549; in [3]) were 13.6 µM, 27.8 µM and 0.16 µM, respectively.
On to `CC(=O)Oc1ccc(/C=C2\N=C(c3ccc(Cl)cc3)N(c3ccccc3)C2=O)cc1Br`, for which the IC50 with MCF7 [1] was found to be 17.8 µg/mL (≈ 35.9 µM); with HepG2 it was 4.6 µg/mL (≈ 9.28 µM).
For the compound `CN(C)c1ccc(/C=C2\N=C(c3ccc(Cl)cc3)N(c3ccc(C(=O)OCC(=O)Nc4ccc(S(=O)(=O)Nc5ncccn5)cc4)cc3)C2=O)cc1`, the IC50 turned out to be 28.4 µM in the data set on MCF7 [2] and 58 µM in the data set with A549.
Consider `COc1cccc2c1C(=O)c1c(O)c3c(c(O)c1C2=O)C[C@@](O)(C(=O)CO)C[C@@H]3O[C@H]1C[C@H](N)[C@H](O)[C@H](C)O1` [DOXORUBICIN], for which the results for the IC50 with MCF7 [2] and with A549 were 6.52 µM and 4.99 µM, respectively.
Take `CN(C)c1ccc(/C=C2\N=C(c3ccc(Cl)cc3)N(c3ccc(S(=O)(=O)Nc4nccs4)cc3)C2=O)cc1`: the IC50 with MCF7 [2] turned out to be 8.65 µM; in the data set on A549 it was 16.2 µM; in [3], 0.1 µM.
Taken in the same sequence, the figures for `CN(C)c1ccc(/C=C2\N=C(c3ccc(Cl)cc3)N(c3ccc(C(=O)OCC(=O)Nc4ccc(S(N)(=O)=O)cc4)cc3)C2=O)cc1` were 24.2 µM, 25 µM and 0.36 µM.
As to `C/C(=N\N1C(=O)CNC1=S)c1ccc(O)cc1O`, the IC50 in [13] turned out to be 0.0251 µM.
Take `CN(C)c1ccc(/C=C2\N=C(c3ccccc3)N(c3ccc(S(N)(=O)=O)cc3)C2=O)cc1`: the IC50 in the data set on MCF7 [2] stood at 19.5 µM; with A549, 29 µM; in data set [3] it was 0.2 µM.
For the compound `CN(C)c1ccc(/C=C2\N=C(c3ccccc3)N(c3ccc(S(=O)(=O)NC(=N)N)cc3)C2=O)cc1`, the IC50 with MCF7 [2] came out at 37.4 µM; in the data set with A549 it was 61.2 µM.
Take `CN(C)c1ccc(/C=C2\N=C(c3ccc(Cl)cc3)N(c3ccc(C(=O)OCC(=O)Nc4ccc(S(=O)(=O)Nc5nccs5)cc4)cc3)C2=O)cc1`: the concentration for half-maximal inhibition (IC50) in the data set on MCF7 [2] was found to be 10 µM; in the data set with A549 it was 12.9 µM; in data set [3] it was 0.11 µM.
On to `CCOC(=O)/C(C#N)=C(\c1ccc(O)cc1)N1CC(=O)N(/N=C(\C)c2ccc(O)cc2O)C1=S`, for which the IC50 in [13] was determined as 0.0198 µM.
`CN(C)c1ccc(/C=C2\N=C(c3ccccc3)N(c3ccc(C(=O)OCC(=O)Nc4ccc(S(=O)(=O)Nc5nccs5)cc4)cc3)C2=O)cc1`: the half-inhibitory concentration (IC50) with MCF7 [2] was found to be 26.5 µM; in the data set with A549 it was 16.6 µM.
Consider `CN(C)c1ccc(/C=C2\N=C(c3ccccc3)N(c3ccc(S(=O)(=O)Nc4ncccn4)cc3)C2=O)cc1`, for which the half-maximal inhibitory concentration (IC50) in the data set with MCF7 [2] is 21.1 µM; in the data set on A549, 29.6 µM.
